Measurements as given in patent US20260015358A1, “BICYCLIC DERIVATIVES, COMPOSITIONS AND USES THEREOF” (Danatlas Pharmaceuticals Co., Ltd., priority 2023, published 2026).

Key:
[1] = target: T1, WRN [UniPro: Q14191 (WRN_HUMAN), N500-C946] (Homo sapiens (Human), UniProt Q14191); assay: WRN ATPase assay (ADP-Glo); assay type: biochemical; conditions: WRN enzymatic activity assay
[2] = target: T1, WRN [UniPro: Q14191 (WRN_HUMAN), N500-C946]; assay: WRN unwinding assay (FORKF DNA, fluorescence); assay type: biochemical; conditions: Table 14

T1 sequence (Q14191 500-946): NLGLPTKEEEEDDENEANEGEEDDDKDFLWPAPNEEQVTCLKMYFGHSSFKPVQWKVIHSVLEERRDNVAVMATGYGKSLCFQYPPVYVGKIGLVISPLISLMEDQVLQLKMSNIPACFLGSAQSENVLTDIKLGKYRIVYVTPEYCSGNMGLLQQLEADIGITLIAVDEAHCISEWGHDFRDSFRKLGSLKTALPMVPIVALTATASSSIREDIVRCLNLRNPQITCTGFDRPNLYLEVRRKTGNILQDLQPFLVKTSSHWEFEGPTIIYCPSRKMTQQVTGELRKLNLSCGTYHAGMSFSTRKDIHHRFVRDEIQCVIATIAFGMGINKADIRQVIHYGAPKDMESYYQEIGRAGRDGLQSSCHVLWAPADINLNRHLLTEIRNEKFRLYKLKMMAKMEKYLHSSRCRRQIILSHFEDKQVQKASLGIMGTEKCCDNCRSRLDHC

IC50 [1] [nM] | IC50 [2] [nM] | Compound
< 100 | < 100 | CCc1c(N2CCN(C(=O)CNC(=O)c3ccno3)CC2)c(=O)n2nc(C3=CCOCC3)nc2n1CC(=O)Nc1ccc(C(F)(F)F)cc1Cl [Example 370, N-(2-(4-(4-(2-((2-Chloro-4-(trifluoromethyl)phenyl)amino)-2-oxoethyl)-2-(3,6-dihydro-2H-pyran-4-yl)-5-ethyl-7-oxo-4,7-dihydro-[1,2,4]triazolo[1,5-a]pyrimidin-6-yl)piperazin-1-yl)-2-oxoethyl) isoxazole-5-carboxamide]
< 100 | < 100 | CCc1c(N2CCN(C(=O)CNC(=O)c3ccon3)CC2)c(=O)n2nc(C3=CCOCC3)nc2n1CC(=O)Nc1ccc(C(F)(F)F)cc1Cl [Example 371, N-(2-(4-(4-(2-((2-Chloro-4-(trifluoromethyl)phenyl)amino)-2-oxoethyl)-2-(3,6-dihydro-2H-pyran-4-yl)-5-ethyl-7-oxo-4,7-dihydro-[1,2,4]triazolo[1,5-a]pyrimidin-6-yl)piperazin-1-yl)-2-oxoethyl) isoxazole-3-carboxamide]
< 100 | < 100 | CCc1c(N2CCN(C(=O)CNC(=O)c3cc(N)ccc3F)CC2)c(=O)n2nc(C3=CCOCC3)nc2n1CC(=O)Nc1ccc(C(F)(F)F)cc1Cl [Example 372, 5-Amino-N-(2-(4-(4-(2-((2-chloro-4-(trifluoromethyl)phenyl)amino)-2-oxoethyl)-2-(3,6-dihydro-2H-pyran-4-yl)-5-ethyl-7-oxo-4,7-dihydro-[1,2,4]triazolo[1,5-a]pyrimidin-6-yl)piperazin-1-yl)-2-oxoethyl)-2-fluorobenzamide]
< 100 | 100 to 1000 | CCc1c(N2CCN(C(=O)CNC(=O)c3cc(N)c(F)cc3F)CC2)c(=O)n2nc(C3=CCOCC3)nc2n1CC(=O)Nc1ccc(C(F)(F)F)cc1Cl [Example 373, 5-Amino-N-(2-(4-(4-(2-((2-chloro-4-(trifluoromethyl)phenyl)amino)-2-oxoethyl)-2-(3,6-dihydro-2H-pyran-4-yl)-5-ethyl-7-oxo-4,7-dihydro-[1,2,4]triazolo[1,5-a]pyrimidin-6-yl)piperazin-1-yl)-2-oxoethyl)-2,4-difluorobenzamide]
< 100 | < 100 | CCNc1ccc(F)c(C(=O)NCC(=O)N2CCN(c3c(CC)n(CC(=O)Nc4ccc(C(F)(F)F)cc4Cl)c4nc(C5=CCOCC5)nn4c3=O)CC2)c1 [Example 374, N-(2-(4-(4-(2-((2-Chloro-4-(trifluoromethyl)phenyl)amino)-2-oxoethyl)-2-(3,6-dihydro-2H-pyran-4-yl)-5-ethyl-7-oxo-4,7-dihydro-[1,2,4]triazolo[1,5-a]pyrimidin-6-yl)piperazin-1-yl)-2-oxoethyl)-5-(ethylamino)-2-fluorobenzamide]
< 100 | < 100 | CCc1c(N2CCN(C(=O)CNC(=O)c3ccc(F)s3)CC2)c(=O)n2nc(C3=CCOCC3)nc2n1CC(=O)Nc1ccc(C(F)(F)F)cc1Cl [Example 375, N-(2-(4-(4-(2-((2-Chloro-4-(trifluoromethyl)phenyl)amino)-2-oxoethyl)-2-(3,6-dihydro-2H-pyran-4-yl)-5-ethyl-7-oxo-4,7-dihydro-[1,2,4]triazolo[1,5-a]pyrimidin-6-yl)piperazin-1-yl)-2-oxoethyl)-5-fluorothiophene-2-carboxamide]
< 100 | < 100 | CCc1c(N2CCN(C(=O)CNC(=O)c3ccno3)CC2)c(=O)n2nc(N3CCOCC3)nc2n1CC(=O)Nc1ccc(C(F)(F)F)cc1Cl [Example 376, N-(2-(4-(4-(2-((2-Chloro-4-(trifluoromethyl)phenyl)amino)-2-oxoethyl)-5-ethyl-2-morpholino-7-oxo-4,7-dihydro-[1,2,4]triazolo[1,5-a]pyrimidin-6-yl)piperazin-1-yl)-2-oxoethyl) isoxazole-5-carboxamide]
< 100 | < 100 | CCc1c(N2CCN(C(=O)CNC(=O)c3ncnc(C)c3O)CC2)c(=O)n2nc(N3CCOCC3)nc2n1CC(=O)Nc1ccc(C(F)(F)F)cc1Cl [Example 377, N-(2-(4-(4-(2-((2-Chloro-4-(trifluoromethyl)phenyl)amino)-2-oxoethyl)-5-ethyl-2-morpholino-7-oxo-4,7-dihydro-[1,2,4]triazolo[1,5-a]pyrimidin-6-yl)piperazin-1-yl)-2-oxoethyl)-5-hydroxy-6-methylpyrimidine-4-carboxamide]
< 100 | < 100 | CCc1c(N2CCN(C(=O)CNC(=O)c3cc(OC)ccc3F)CC2)c(=O)n2nc(C3=CCOCC3)nc2n1CC(=O)Nc1ccc(C(F)(F)F)cc1Cl [Example 378, N-(2-(4-(4-(2-((2-Chloro-4-(trifluoromethyl)phenyl)amino)-2-oxoethyl)-2-(3,6-dihydro-2H-pyran-4-yl)-5-ethyl-7-oxo-4,7-dihydro-[1,2,4]triazolo[1,5-a]pyrimidin-6-yl)piperazin-1-yl)-2-oxoethyl)-2-fluoro-5-methoxybenzamide]
< 100 | < 100 | CCc1c(N2CCN(C(=O)CNC(=O)c3ccc(OC)cc3F)CC2)c(=O)n2nc(C3=CCOCC3)nc2n1CC(=O)Nc1ccc(C(F)(F)F)cc1Cl [Example 379, N-(2-(4-(4-(2-((2-Chloro-4-(trifluoromethyl)phenyl)amino)-2-oxoethyl)-2-(3,6-dihydro-2H-pyran-4-yl)-5-ethyl-7-oxo-4,7-dihydro-[1,2,4]triazolo[1,5-a]pyrimidin-6-yl)piperazin-1-yl)-2-oxoethyl)-2-fluoro-4-methoxybenzamide]
100 to 1000 | 100 to 1000 | CCc1c(N2CCN(C(=O)CNC(=O)c3ccc(NC)cc3F)CC2)c(=O)n2nc(C3=CCOCC3)nc2n1CC(=O)Nc1ccc(C(F)(F)F)cc1Cl [Example 380, N-(2-(4-(4-(2-((2-Chloro-4-(trifluoromethyl)phenyl)amino)-2-oxoethyl)-2-(3,6-dihydro-2H-pyran-4-yl)-5-ethyl-7-oxo-4,7-dihydro-[1,2,4]triazolo[1,5-a]pyrimidin-6-yl)piperazin-1-yl)-2-oxoethyl)-2-fluoro-4-(methylamino)benzamide]
< 100 | < 100 | CCc1c(N2CCN(C(=O)CNC(=O)c3ccncc3O)CC2)c(=O)n2nc(C3=CCOCC3)nc2n1CC(=O)Nc1ccc(C(F)(F)F)cc1Cl [Example 381, N-(2-(4-(4-(2-((2-Chloro-4-(trifluoromethyl)phenyl)amino)-2-oxoethyl)-2-(3,6-dihydro-2H-pyran-4-yl)-5-ethyl-7-oxo-4,7-dihydro-[1,2,4]triazolo[1,5-a]pyrimidin-6-yl)piperazin-1-yl)-2-oxoethyl)-3-hydroxyisonicotinamide]
< 100 | < 100 | CCc1c(N2CCN(C(=O)CNC(=O)c3cc(C#N)ccc3F)CC2)c(=O)n2nc(C3=CCOCC3)nc2n1CC(=O)Nc1ccc(C(F)(F)F)cc1Cl [Example 382, N-(2-(4-(4-(2-((2-Chloro-4-(trifluoromethyl)phenyl)amino)-2-oxoethyl)-2-(3,6-dihydro-2H-pyran-4-yl)-5-ethyl-7-oxo-4,7-dihydro-[1,2,4]triazolo[1,5-a]pyrimidin-6-yl)piperazin-1-yl)-2-oxoethyl)-5-cyano-2-fluorobenzamide]
